From publication PMC8533149 (Biomolecules, 2021)

What follows are compounds tested on HIV-1 LTR-III G-quadruplex (FAM/TAMRA-labeled LTR-III) (assay: FRET melting assay, LTR-III G4). Settings: Table S1 primary screening, ligand:ODN 50:1, singlicate.
Assay type: binding
Protocol: To evaluate stabilizing properties of the ligands in a complex with oligodeoxyribonucleotides (ODNs) melting with fluorescence registration was used. ODN (0.5 μM) (Table 1), labeled with 6-carboxyfluorescein (FAM) and 6-carboxytetramethylrhodamine (TAMRA) at the 5′- and 3′-end, respectively, were folded in lithium cacodylate buffer (10 mM, pH 7.4) with 100 mM KCl by heating at 95 °C for 5 min and gradually cooling to r.t. GFP chromophore analogs (5 mM solution in DMSO) were diluted with the same buffer to the final concentration of 25 μM and mixed with an equal volume of 0.5 μM ODN solution resulting in a molar ratio of 50:1 (total volume was 50 μL). For the titration experiments molar ratios of 20:1 and 2:1 were used. Samples were analyzed using DTprime qPCR system (DNA-Technology LLC, Moscow, Russia). Fluorescence was registered by detection of FAM emission at 520 nm upon excitation at 495 nm in the temperature range of 30–95 °C with 1 °C/min gradient. Tm was determined using the instrument software and ΔTm was calculated relative to ODN Tm in a buffer solution containing 0.25% (v/v) DMSO. The primary and secondary screening were carried out in singlicate and triplicate, respectively.

`CN1C(=O)C(=Cc2ccc(C#N)cc2)N=C1Nc1ccccc1` [M 2385a] and `CN1C(=O)C(=Cc2ccccc2)N=C1Nc1ccccc1` [M 2385b1] are the same in “LTR-III ΔTm” value: -0.1 °C for the first, -0.1 °C for the second.

Going from `CC1=NC(=Cc2ccc(O)c([N+](=O)[O-])c2)C(=O)N1C` [M 2482] to `CC1=NC(=Cc2ccc(O)c(C#N)c2)C(=O)N1C` [M 2489.2], the “LTR-III ΔTm” value rises from -1.2 °C to -0.5 °C.

Compared with `CCOc1cc(C=C2N=C(C)N(C)C2=O)ccc1O` [M 2486], `COc1cc(C=C2N=C(C)N(C)C2=O)ccc1O` [M 2491] is lower in “LTR-III ΔTm” value: 0 °C for the first, -0.2 °C for the second.

First: O=C1NC(=S)NC1=Cc1ccc(O)cc1 [M 2497]
Second: Cc1ccc(C(O)=CC2=NC(=Cc3ccc(O)cc3)C(=O)N2C)cc1 [N 154]
The “LTR-III ΔTm” value of the first is higher: 0 °C for the first, -0.1 °C for the second.

Compared with `COc1cc(/C=C2N=C(/C=C/c3ccccc3)N(C)C\2=O)ccc1O` [M 2499a], `CN1C(=O)C(=Cc2ccc(O)c(O)c2)N=C1C=Cc1ccccc1` [M 2499b] is higher in “LTR-III ΔTm” value: 0.1 °C for the first, 0.3 °C for the second.

First: COc1cc(O)ccc1C=C1N=C(C(F)(F)F)N(C)C1=O [M 2738c]
Second: COc1cc(O)ccc1C=C1N=C(C)N(C)C1=O [N 865]
The “LTR-III ΔTm” value of the first is lower: 0.4 °C for the first, 0.8 °C for the second.

Going from `COc1cc(C=C2N=C(C(F)(F)F)N(C)C2=O)c(OC)cc1O` [M 2738d] to `COc1cc(O)cc(OC)c1C=C1N=C(C=Cc2c(F)c(F)nc(F)c2F)N(C)C1=O` [N 971], the “LTR-III ΔTm” value falls from 1.4 °C to 0.1 °C.

Going from `COc1cc(O)ccc1/C=C/C1=[N+](C)c2ccccc2C1(C)C.[O-][Cl+3]([O-])([O-])[O-]` [M 2761a] to `COc1cc(O)ccc1/C=C1N=C(/C=C/c2ccccc2)N(C)C\1=O` [MID 145], the “LTR-III ΔTm” value rises from 0.5 °C to 0.9 °C.

First: COc1cc(O)ccc1C=C1N=C(C=Cc2ccccn2)N(C)C1=O [M 2766]
Second: COc1cc(O)ccc1/C=C1N=C(/C=C/c2ccncc2)N(C)C\1=O [N 871B]
The “LTR-III ΔTm” value of the first is higher: 1.1 °C for the first, 0.4 °C for the second.

First: COc1cc(O)ccc1C=C1N=C(C=Cc2ccc(N(C)C)cc2)N(C)C1=O [MID 147]
Second: CN1C(=O)C(=Cc2ccc(O)cc2N(C)C)N=C1C=Cc1ccncc1 [MID 213]
The “LTR-III ΔTm” value of the first is lower: 0.4 °C for the first, 0.9 °C for the second.

Compared with `COc1cc(O)ccc1C=C1N=C(C=C(C#N)c2ccccc2)N(C)C1=O` [MID 151], `COc1cc(O)ccc1/C=C1N=C(/C=C(\C#N)c2cccs2)N(C)C\1=O` [MID 153] is higher in “LTR-III ΔTm” value: 0.2 °C for the first, 2 °C for the second.

Compared with `COc1ccc2cc(CO)ccc2c1` [N 49], `Oc1ccc2cc(Br)ccc2c1` [N 576.3] is higher in “LTR-III ΔTm” value: -0.1 °C for the first, 0 °C for the second.

Compared with `CC1=CC(C)(C)N(C)c2ccc(C=CC3=NC(=Cc4ccc5c(c4)C(C)=CC(C)(C)N5C)C(=O)N3CCCC(=O)O)cc21` [N 62], `CC1=CC(C)(C)N(C)c2ccc(C=C3N=C(C)N(CCCCO)C3=O)cc21` [N 141] is lower in “LTR-III ΔTm” value: 0.6 °C for the first, 0.2 °C for the second.

First: CC1=NC(=Cc2cc3c4c(c2)CCCN4CCC3)C(=O)N1CCO [N 111]
Second: CC1=NC(=Cc2cc3c4c(c2)CCCN4CCC3)C(=O)N1CCCC(=O)O [N 152]
The “LTR-III ΔTm” value of the first is higher: 1 °C for the first, 0.3 °C for the second.

First: CCN(CC)c1ccc(C=C2N=C(C)N(CCCCO[Si](c3ccccc3)(c3ccccc3)C(C)(C)C)C2=O)cc1 [N 162]
Second: CN1C=NC(=Cc2ccc(O[Si](c3ccccc3)(c3ccccc3)C(C)(C)C)cc2)C1=O [N 624]
The “LTR-III ΔTm” value of the first is higher: 0.2 °C for the first, -0.5 °C for the second.

First: CCN(CC)c1ccc(C=C2N=C(C)N(CCCCO)C2=O)cc1 [N 182]
Second: CCN(CC)c1ccc(C=C2N=C(C)N(CCCCCl)C2=O)cc1 [N 189]
The “LTR-III ΔTm” value of the first is lower: -0.1 °C for the first, 0.2 °C for the second.

First: COc1ccc(C=C2N=C(C=C(O)c3ccc(Br)cc3)N(C)C2=O)cc1 [N 537]
Second: COc1ccc(C=C2N=C(C=C(O)c3cccs3)N(C)C2=O)cc1 [N 539.1]
The “LTR-III ΔTm” value of the first is lower: -0.3 °C for the first, 0 °C for the second.

Going from `CC1=NC(=Cc2ccc3cc(N4CCCC4)ccc3c2)C(=O)N1C` [N 555.3] to `CC1=NC(=Cc2ccc(N3CCCC3)cc2)C(=O)N1C` [N 704], the “LTR-III ΔTm” value falls from 0.7 °C to -0.2 °C.

Compared with `CCNc1ccc2cc(Br)ccc2c1` [N 576.2], `CCN(CC)c1ccc2cc(C=C3N=C(C)N(C)C3=O)ccc2c1` [N 601.23] is lower in “LTR-III ΔTm” value: 0 °C for the first, -0.7 °C for the second.

First: CCN(CC)c1ccc2c(C=CN(C)C)cc(=O)oc2c1 [N 582.1]
Second: CCN(CC)c1ccc(C=C2N=C3C=CC=CN3C2=O)cc1 [N 641]
The “LTR-III ΔTm” value of the first is higher: 0 °C for the first, -0.5 °C for the second.

Compared with `COc1ccc(C=C2N=CN(C)C2=O)cc1` [N 599.2], `COc1ccc(C=CC2=NC(=Cc3ccncc3)C(=O)N2C)cc1` [N 813] is higher in “LTR-III ΔTm” value: -0.7 °C for the first, 0.6 °C for the second.

Going from `CC1=NC(=Cc2ccc3c(c2)CCN3)C(=O)N1C` [N 652.3] to `CC1=NC(=Cc2ccc3[nH]c(C)c(C)c3c2)C(=O)N1C` [N 792], the “LTR-III ΔTm” value falls from 0.3 °C to 0.2 °C.

Compared with `CC1=NC(=Cc2ccc(N3CCCCC3)cc2)C(=O)N1C` [N 665], `CC1=NC(=Cc2ccc(N3CCCCCC3)cc2)C(=O)N1C` [N 708.2] is higher in “LTR-III ΔTm” value: -0.3 °C for the first, 0.2 °C for the second.

First: CC1=NC(=Cc2ccccc2O)C(=O)N1 [N 702.1]
Second: CC1=NC(=Cc2cc(F)c(O)c(F)c2)C(=O)N1 [N 853]
The “LTR-III ΔTm” value of the first is higher: 0 °C for the first, -0.9 °C for the second.

Going from `CC1=NC(=Cc2ccc(N3CCC3)cc2)C(=O)N1C` [N 710.12] to `CC1=NC(=Cc2ccc(O)cc2O)C(=O)N1C` [N 844.1], the “LTR-III ΔTm” value falls from 0.1 °C to -0.1 °C.

Compared with `CN1C(=O)C(=Cc2ccncc2)N=C1C=Cc1ccncc1` [N 768], `CN1C(=O)C(=Cc2cc(Br)c(O)c(Br)c2)N=C1C=Cc1ccncc1` [N 848.1] is lower in “LTR-III ΔTm” value: 0.9 °C for the first, -1.8 °C for the second.

Going from `CC1=NC(=Cc2cccc(F)c2O)C(=O)N1C` [N 781] to `CC1=NC(=Cc2ccc[nH]2)C(=O)N1C` [N 815], the “LTR-III ΔTm” value falls from 0 °C to -0.1 °C.

Going from `O=C1C(=C2N=C3C=CC=CN3C2=O)N=C2C=CC=CN12` [N 817.2] to `O=C1/C(=C/c2ccncc2)N=C2C=CC=CN12` [N 817], the “LTR-III ΔTm” value rises from -0.1 °C to 0 °C.

Compared with `CNC(=O)C(=Cc1ccc(C#N)cc1)N=[N+]=[N-]` [N 830A], `CNC(=O)C(=Cc1ccccc1)N=[N+]=[N-]` [N 830b] is lower in “LTR-III ΔTm” value: -0.1 °C for the first, -0.2 °C for the second.

Compared with `CNC(=O)C(=Cc1ccc(C#N)cc1)N=P(c1ccccc1)(c1ccccc1)c1ccccc1` [N 831], `CNC(=O)C(=Cc1ccccc1)N=P(c1ccccc1)(c1ccccc1)c1ccccc1` [N 832] is lower in “LTR-III ΔTm” value: 0 °C for the first, -0.5 °C for the second.

First: CNC(=O)C(=Cc1ccncc1)N=P(c1ccccc1)(c1ccccc1)c1ccccc1 [N 833]
Second: CN1C(=O)C(=Cc2cc(Cl)c(O)c(Cl)c2)N=C1C=Cc1ccncc1 [N 901]
The “LTR-III ΔTm” value of the first is lower: -0.6 °C for the first, 0.4 °C for the second.

Going from `COc1ccc(OC)c(C=C2N=C(C=Cc3cc(Br)c(O)c(Br)c3)N(C)C2=O)c1` [N 851A] to `COc1ccc(O)c(C=C2N=C(C=Cc3cc(Br)c(O)c(Br)c3)N(C)C2=O)c1` [N 851B], the “LTR-III ΔTm” value falls from 1.4 °C to 1.2 °C.

Compared with `CN1C(=O)C(=Cc2ccc(O)cc2O)N=C1C=Cc1cc(Br)c(O)c(Br)c1` [N 855], `COc1cc(O)ccc1C=C1N=C(C=Cc2cc(Cl)nc(Cl)c2)N(C)C1=O` [N 960b] is higher in “LTR-III ΔTm” value: 0.4 °C for the first, 0.7 °C for the second.

Compared with `CN1C(=O)C(=Cc2ccc(O)cc2)N=C1C=Cc1ccc2cc(N(C)C)ccc2c1` [N 861], `CN1C(=O)C(=Cc2ccc(O)cc2)N=C1C=Cc1cccc(C(F)(F)F)c1` [N 873] is higher in “LTR-III ΔTm” value: 0 °C for the first, 0.4 °C for the second.

Compared with `O=C1NC(/C=C/c2ccncc2)=NC/1=C\c1cc(F)c(O)c(F)c1` [N 863], `CN1C(=O)C(=Cc2ccc(O)cc2)N=C1C=Cc1cc(Cl)nc(Cl)c1` [N 886] is lower in “LTR-III ΔTm” value: 0 °C for the first, -0.2 °C for the second.

First: CC1=NC(=Cc2cc(Cl)c(O)c(Cl)c2)C(=O)N1C [N 892]
Second: CN1C(=O)C(=Cc2ccc(O)cc2)N=C1C=Cc1cc(Cl)c(O)c(Cl)c1 [N 914]
The “LTR-III ΔTm” value of the first is lower: -1 °C for the first, -0.8 °C for the second.

Compared with `CN1C(=O)C(=Cc2ccc(O)cc2)N=C1C=Cc1c(F)c(F)c(O)c(F)c1F` [N 893], `COc1cc(O)ccc1C=C1N=C(C=Cc2c(F)c(F)nc(F)c2F)N(C)C1=O` [N 967] is higher in “LTR-III ΔTm” value: -0.4 °C for the first, 0.8 °C for the second.

Going from `CN1C(=O)C(=Cc2ccc(SSc3ccc(C=C4N=C(C=Cc5cc(Br)c(O)c(Br)c5)N(C)C4=O)cc3)cc2)N=C1C=Cc1cc(Br)c(O)c(Br)c1` [N 898] to `COc1cc(O)cc(OC)c1C=C1N=C(C=Cc2cc(Cl)nc(Cl)c2)N(C)C1=O` [N 973], the “LTR-III ΔTm” value rises from 0.1 °C to 2.3 °C.
